Laboratory results reported in the supplement of paper PMC11061612.

Experiments:
[1] = compound: C=CCn1c(=O)c2cnc(Nc3ccc(N4CCN(C)CC4)cc3)nc2n1-c1cccc(C(C)(C)O)n1 [AZD1775]
How it was run: (§1)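 Following 24 hours at 37°C and 5% CO2, cancer cell lines in 1536-well plates with 7.5 μl DMEM/F12 or RPMI and 10% FBS were dosed for 72 hours, final DMSO typically being 0.2%. CellTiter-Glo 2.0 luminescence, scaled between blank-well and DMSO-well means, gave the viability readout. Dose responses were fitted to a two-parameter logistic curve with a non-linear mixed effects model, and the single-agent IC50 was derived from this fit.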

[2] = compound: COc1cc2ncnc(Nc3ccc(F)c(Cl)c3)c2cc1OCCCN1CCOCC1 [Gefitinib]; details: max 10 µM
How it was run: as §1

[3] = compound: COc1cc([C@@H]2c3cc4c(cc3[C@@H](O[C@@H]3O[C@@H]5CO[C@@H](C)O[C@H]5[C@H](O)[C@H]3O)[C@H]3COC(=O)[C@H]23)OCO4)cc(OC)c1O [Etoposide]; details: max 10 µM
How it was run: as §1

[4] = compound: N#Cc1cnc(Nc2cc(NC[C@H]3CNCCO3)c(C(F)(F)F)cn2)cn1 [SRA737]; details: max 10 µM
How it was run: as §1

[5] = compound: CCc1c2c(nc3ccc(O)cc13)-c1cc3c(c(=O)n1C2)COC(=O)[C@]3(O)CC [SN-38]; details: max 0.3 µM
How it was run: as §1

[6] = compound: C1CN(CCC1(C(=O)N[C@@H](CCO)C2=CC=C(C=C2)Cl)N)C3=NC=NC4=C3C=CN4 [AZD5363]; details: max 10 µM
How it was run: as §1

[7] = compound: CC(=O)Nc1cccc(-n2c(=O)n(C3CC3)c(=O)c3c(Nc4ccc(I)cc4F)n(C)c(=O)c(C)c32)c1 [Trametinib]; details: max 1 µM
How it was run: as §1

[8] = compound: COc1nnc2ccc(N3CCC(c4ccc(OCCN5CCN(C)C(=O)[C@H]5C)cc4)CC3)nn12 [AZD5153]; details: max 1 µM
How it was run: as §1

[9] = compound: COc1cccc2c1C(=O)c1c(O)c3c(c(O)c1C2=O)C[C@@](O)(C(=O)CO)C[C@@H]3O[C@H]1C[C@H](N)[C@H](O)[C@H](C)O1 [Doxorubicin]; details: max 1 µM
How it was run: as §1

[10] = compound: CN(C)CCCOc1ccc(-c2ccc3ncc4c(c3c2)n(C2CCOCC2)c(=O)n4C)cn1 [AZD0156]
How it was run: as §1

[11] = compound: O=C(c1cc(Cc2n[nH]c(=O)c3ccccc23)ccc1F)N1CCN(C(=O)C2CC2)CC1 [Olaparib]; details: max 10 µM
How it was run: as §1

[12] = compound: CC1=C(C(=CC=C1)Cl)NC(=O)C2=CN=C(S2)NC3=CC(=NC(=N3)C)N4CCN(CC4)CCO [Dasatinib]; details: max 2 µM
How it was run: as §1

[13] = compound: Cc1cc2ncnn2cc1Nc1ncc2c(n1)n(C1CCOCC1)c(=O)n2C [AZD7648]; details: max 10 µM
How it was run: as §1

[14] = compound: Cn1cnc2c(F)c(Nc3ccc(Br)cc3Cl)c(C(=O)NOCCO)cc21 [Selumetinib]; details: max 10 µM
How it was run: as §1

[15] = compound: CN(CC[C@H](CSC1=CC=CC=C1)NC2=C(C=C(C=C2)S(=O)(=O)NC(=O)C3=CC=C(C=C3)N4CCC(CC4)[C@H](C5=CC=CC=C5C6=CC=C(C=C6)Cl)O)S(=O)(=O)C(F)(F)F)CCO [AZD4320]; details: max 1 µM
How it was run: as §1

[16] = compound: CC1(C)CCC(CN2CCN(c3ccc(C(=O)NS(=O)(=O)c4ccc(NCC5CCOCC5)c([N+](=O)[O-])c4)c(Oc4cnc5[nH]ccc5c4)c3)CC2)=C(c2ccc(Cl)cc2)C1 [Venetoclax]; details: max 1 µM
How it was run: as §1

[17] = compound: Nc1ccn([C@@H]2O[C@H](CO)[C@@H](O)C2(F)F)c(=O)n1 [Gemcitabine]; details: max 0.3 µM
How it was run: as §1

[18] = compound: CC(=O)O[C@H]1C(=O)[C@@]2(C)[C@H]([C@H](OC(=O)c3ccccc3)[C@]3(O)C[C@H](OC(=O)[C@H](O)[C@@H](NC(=O)c4ccccc4)c4ccccc4)C(C)=C1C3(C)C)[C@]1(OC(C)=O)CO[C@@H]1C[C@@H]2O [Paclitaxel]; details: max 3 µM
How it was run: as §1

[19] = compound: C[C@@H](Nc1cc(F)cc(F)c1)c1cc(C(=O)N(C)C)cc2c(=O)cc(N3CCOCC3)oc12 [AZD8186]; details: max 10 µM
How it was run: as §1

[20] = compound: COc1cccc(OCCCN)c1-c1cc(Nc2cnc(C#N)cn2)n[nH]1 [Prexasertib]; details: max 1 µM
How it was run: as §1

[21] = compound: CS(=O)(=O)CCNCc1ccc(-c2ccc3ncnc(Nc4ccc(OCc5cccc(F)c5)c(Cl)c4)c3c2)o1 [Lapatinib]; details: max 10 µM
How it was run: as §1

[22] = compound: O=C(Nc1ccc2[nH]nc(-c3ccncc3)c2c1)[C@@H]1CCN(CC(=O)N2CCN(c3ccc(-c4ncccn4)cc3)CC2)C1; details: max 5 µM
How it was run: as §1

[23] = compound: CC(C)n1c(=O)n(C)c2cnc3cc(F)c(-c4ccc(OCCCN5CCCCC5)nc4)cc3c21 [AZD1390]; details: max 0.3 µM
How it was run: as §1

[24] = compound: Cc1c2c(nn1C)CSCc1cc(n(C)n1)CSc1cc(c3ccccc3c1)OCCCc1c(C(=O)O)n(C)c3c-2c(Cl)ccc13 [AZD5991]; details: max 1 µM
How it was run: as §1

[25] = compound: COc1cc(Nc2ncc3c(n2)-c2ccc(Cl)cc2C(c2c(F)cccc2OC)=NC3)ccc1C(=O)O [Alisertib]; details: max 10 µM
How it was run: as §1

[26] = compound: NC1(c2ccc(-c3nc4ccn5c(=O)[nH]nc5c4cc3-c3ccccc3)cc2)CCC1 [MK-2206]; details: max 10 µM
How it was run: as §1

[27] = compound: CCN(CCO)CCCOc1ccc2c(Nc3cc(CC(=O)Nc4cccc(F)c4)[nH]n3)ncnc2c1 [AZD2811]; details: max 1 µM
How it was run: as §1

[28] = compound: CC(=O)c1c(C)c2cnc(Nc3ccc(N4CCNCC4)cn3)nc2n(C2CCCC2)c1=O [Palbociclib]; details: max 10 µM
How it was run: as §1

[29] = compound: CC1=CN2[C@@H](C1)C=NC3=CC(=C(C=C3C2=O)OC)OCCCCCOC4=C(C=C5C(=C4)N=C[C@@H]6CC(=CN6C5=O)C)OC [SG3199]; details: max 0.001 µM
How it was run: as §1

[30] = compound: Cc1nc(-c2cn3c(n2)-c2ccc(-c4cnn(C(C)(C)C(N)=O)c4)cc2OCC3)n(C(C)C)n1 [Taselisib]; details: max 10 µM
How it was run: as §1

[31] = compound: C1CC(C1)(C(=O)[O-])C(=O)[O-].N.N.[Pt+2] [Carboplatin]; details: max 10 µM
How it was run: as §1

[32] = compound: O=c1[nH]cc(F)c(=O)[nH]1 [5-Fluorouracil]; details: max 20 µM
How it was run: as §1

[33] = compound: C[C@@H](Oc1cc(-c2cnn(C3CCNCC3)c2)cnc1N)c1c(Cl)ccc(F)c1Cl [Crizotinib]; details: max 10 µM
How it was run: as §1

[34] = compound: C[C@@H]1COCCN1C2=NC(=NC(=C2)C3(CC3)[S@](=N)(=O)C)C4=C5C=CNC5=NC=C4 [AZD6738]; details: max 10 µM
How it was run: as §1

[35] = compound: C[C@@H](c1ccc2nccn2c1)n1nnc2ncc(-c3cnn(C)c3)nc21 [Savolitinib]; details: max 1 µM
How it was run: as §1

Cell Line	IC50, cell viability 72 h ([1]; max 3 µM)	IC50, cell viability 72 h [2]	IC50, cell viability 72 h [3]	IC50, cell viability 72 h [4]	IC50, cell viability 72 h [5]	IC50, cell viability 72 h [6]	IC50, cell viability 72 h [7]	IC50, cell viability 72 h [8]	IC50, cell viability 72 h [9]	IC50, cell viability 72 h ([10]; max 3 µM)	IC50, cell viability 72 h [11]	IC50, cell viability 72 h [12]	IC50, cell viability 72 h [13]	IC50, cell viability 72 h [14]	IC50, cell viability 72 h [15]	IC50, cell viability 72 h [16]	IC50, cell viability 72 h [17]	IC50, cell viability 72 h [18]	IC50, cell viability 72 h [19]	IC50, cell viability 72 h [20]	IC50, cell viability 72 h [21]	IC50, cell viability 72 h [22]	IC50, cell viability 72 h [23]	IC50, cell viability 72 h [24]	IC50, cell viability 72 h [25]	IC50, cell viability 72 h [26]	IC50, cell viability 72 h [27]	IC50, cell viability 72 h [28]	IC50, cell viability 72 h [29]	IC50, cell viability 72 h [30]	IC50, cell viability 72 h [31]	IC50, cell viability 72 h [32]	IC50, cell viability 72 h [33]	IC50, cell viability 72 h [34]	IC50, cell viability 72 h [35]	IC50, cell viability 72 h ([1]; max 1 µM)	IC50, cell viability 72 h ([10]; max 1 µM)
22RV1 (Prostate Carcinoma)	> 3000 nM	> 10000 nM	> 10000 nM	> 10000 nM	28.9 nM	> 10000 nM	> 1000 nM	> 1000 nM	426 nM	> 3000 nM	> 10000 nM	> 2000 nM	> 10000 nM	> 10000 nM	> 1000 nM	> 1000 nM	101 nM	50.6 nM	> 10000 nM	> 1000 nM	> 10000 nM	> 5000 nM	> 300 nM	> 1000 nM	> 10000 nM	6050 nM	> 1000 nM	> 10000 nM	> 1 nM	1860 nM	> 10000 nM	> 20000 nM	> 10000 nM	> 10000 nM	> 1000 nM	–	–
CGTH-W-1 (Thyroid Gland Carcinoma)	> 3000 nM	> 10000 nM	> 10000 nM	> 10000 nM	30.8 nM	> 10000 nM	> 1000 nM	> 1000 nM	934 nM	> 3000 nM	> 10000 nM	544 nM	> 10000 nM	> 10000 nM	> 1000 nM	> 1000 nM	119 nM	2590 nM	> 10000 nM	129 nM	> 10000 nM	> 5000 nM	> 300 nM	> 1000 nM	> 10000 nM	> 10000 nM	> 1000 nM	> 10000 nM	> 1 nM	9160 nM	> 10000 nM	> 20000 nM	> 10000 nM	> 10000 nM	> 1000 nM	–	–
UACC-812 (Breast Carcinoma)	> 3000 nM	> 10000 nM	9330 nM	> 10000 nM	> 300 nM	> 10000 nM	> 1000 nM	> 1000 nM	> 1000 nM	> 3000 nM	> 10000 nM	> 2000 nM	> 10000 nM	> 10000 nM	> 1000 nM	> 1000 nM	> 300 nM	1920 nM	> 10000 nM	851 nM	7470 nM	> 5000 nM	> 300 nM	> 1000 nM	> 10000 nM	–	> 1000 nM	> 10000 nM	> 1 nM	> 10000 nM	> 10000 nM	> 20000 nM	> 10000 nM	> 10000 nM	> 1000 nM	–	–
KP-N-YN (Neuroblastoma)	–	> 10000 nM	> 10000 nM	751 nM	35 nM	> 10000 nM	> 1000 nM	> 1000 nM	749 nM	–	> 10000 nM	> 2000 nM	> 10000 nM	> 10000 nM	49.2 nM	344 nM	–	110 nM	> 10000 nM	5.36 nM	> 10000 nM	> 5000 nM	> 300 nM	> 1000 nM	1090 nM	> 10000 nM	402 nM	> 10000 nM	> 1 nM	5580 nM	> 10000 nM	> 20000 nM	> 10000 nM	751 nM	> 1000 nM	307 nM	> 1000 nM
NCI-H841 (Small Cell Lung Carcinoma)	1690 nM	> 10000 nM	> 10000 nM	> 10000 nM	> 300 nM	> 10000 nM	> 1000 nM	> 1000 nM	–	> 3000 nM	> 10000 nM	> 2000 nM	> 10000 nM	> 10000 nM	> 1000 nM	> 1000 nM	> 300 nM	26.6 nM	> 10000 nM	–	> 10000 nM	> 5000 nM	> 300 nM	> 1000 nM	–	> 10000 nM	> 1000 nM	> 10000 nM	–	> 10000 nM	> 10000 nM	> 20000 nM	> 10000 nM	> 10000 nM	> 1000 nM	–	–
MKN1 (Gastric Carcinoma)	640 nM	> 10000 nM	1250 nM	4850 nM	124 nM	> 10000 nM	> 1000 nM	343 nM	–	> 3000 nM	> 10000 nM	560 nM	> 10000 nM	> 10000 nM	> 1000 nM	> 1000 nM	161 nM	13.4 nM	> 10000 nM	–	> 10000 nM	> 5000 nM	> 300 nM	> 1000 nM	–	> 10000 nM	> 1000 nM	> 10000 nM	–	573 nM	> 10000 nM	> 20000 nM	> 10000 nM	2870 nM	> 1000 nM	–	–
